These results are taken from a melting point compilation (Tetko et al.; mined from patent text by program, amines drawn as free bases though some values may be those of a salt).

Compound `O=C1NC(Cc2c[nH]c3ccccc23)C(=O)N1CCCN1CCC(c2ccccc2)CC1` (configuration not stated) showed a melting point of 179 to 180 °C.

The compound `CCCCCCS(=O)(=O)c1nn2c(=O)c([N+](=O)[O-])c(OC)nc2s1` came in with a melting point of 150 to 152 °C.

As to `O=S1CCNCc2c(Cl)cccc21` (configuration not stated), the melting point is 125 to 126 °C.

Compound `O=C(O)c1ccc(S(=O)(=O)CCCl)cc1` came in with a melting point of 142 to 144 °C.

Compound `CCN1c2ccccc2Sc2cc(C=O)ccc21` showed a melting point of 94 to 95 °C.

On to `CCCCCc1cc(O)c2c(c1)OC(C)(C)CC2C1=CCN(Cc2ccc3ccccc3c2)CC1` (configuration not stated), for which the melting point fell in the range of 49 to 51.5 °C.

`CCCCCN1CCC(n2nc(-c3c(-c4ccccc4)nn4ccccc34)ccc2=O)CC1` showed a melting point of 106 °C.

With `CCCCN1CCC(n2nc(-c3cc(Cl)cc4c3OCC4)oc2=O)CC1`, the melting point came to 134 °C.

Regarding `COc1ccc(-c2cnc3cc4cnn(CCOC(C)=O)c4cc3n2)cc1F`, the melting point is 164 to 166 °C.

As to `CC(C(N)=O)c1ccc2c(c1)C(=O)Cc1cc(C(F)(F)F)ccc1S2` (configuration not stated), the melting point was in the range of 159 to 161 °C.

`CC(=O)Oc1ccc(-c2cnc(NS(=O)(=O)Cc3ccccc3)c(Cc3ccccc3)n2)cc1`: the melting point fell in the range of 240 to 241 °C.

In turn, `COC(=O)Cc1ccc(S(C)(=O)=O)c(Cl)c1` displayed a melting point of 54 to 57 °C.

`O=[N+]([O-])c1nn(-c2c(Cl)cc(C(F)(F)F)cc2Cl)cc1S(=O)C(F)(F)F` (configuration not stated): the melting point lay in the range of 124 to 130 °C.

Compound `CCOC(=O)C(C)n1ncc2ccc([N+](=O)[O-])cc21` (configuration not stated) came in with a melting point of 99.7 to 100 °C.

In turn, `CC1=NC(NC(=O)Nc2cccc(C)c2)C(=O)N(CC(=O)C(C)(C)C)c2c(C)cccc21` (configuration not stated) came in with a melting point of 180 to 181 °C.

In the case of `O=C(SCCC(=O)N1C(c2cccs2)SC[C@H]1C(=O)O)c1ccccc1` (some centres not stated), the melting point lay within 141 to 143 °C.

As for `CC(C)CC(NC(=O)C(Cc1c[nH]cn1)NC(=O)C(CC(=O)N1CCOCC1)Cc1cccc2ccccc12)C(O)C(=O)OC(C)C` (mixture of isomers), the melting point was 95 to 98 °C.

For the compound `CC(C)Oc1ccc(N2CCCNCC2)cc1`, the melting point was in the range of 62 to 64 °C.

Take `CCOc1ccc(NC(=S)SC)cc1F`: the melting point came to 108 °C.

Consider `Cc1cc(C)c2cccc(OCc3c(Cl)ccc(S(=O)(=O)N4CCC[C@H]4C(=O)N4CCCNCC4)c3Cl)c2n1`, for which the melting point stood at 65 °C.

Regarding `OC1CSC(Oc2ccc(-c3cc4ccccc4o3)nc2)C(O)C1O` (configuration not stated), the melting point is 195 °C.

`O=P(O)(O)C(c1ccc2cc(O)ccc2c1)P(O)(O)=S` (configuration not stated) returned a melting point of 210 to 211 °C.

In the case of `CC(=O)Oc1ccc(CC(=O)Nc2cccc(/C=C/c3nc(C4CCC4)cs3)c2)c(C(=O)O)c1`, the melting point is 176 to 179 °C.

Regarding `O=C(Oc1c(F)c(F)c(F)c(F)c1F)c1ccccc1O`, the melting point was 111 to 112 °C.

`CCCc1nn(-c2ccc(C(F)(F)F)cn2)cc1CCCC=O`: the melting point is 71 to 72 °C.

For the compound `COc1cc2cc(OCc3ccccc3)cnc2cc1OC`, the melting point was 146 to 148 °C.

Compound `Clc1ccc(-c2cc(C3CCN(Cc4ccccc4)CC3)no2)cc1` returned a melting point of 112 to 114 °C.

Turning to `CC(C)C1(C)N=C(c2ccccc2C(=O)O)NC1=S` (configuration not stated), the melting point lay in the range of 192 to 198 °C.

Compound `Cc1c(N2CC[C@@H](C3(NCCO)CC3)C2)c(F)cc2c(=O)c(C(=O)O)cn([C@@H]3C[C@@H]3F)c12` came in with a melting point of 168 to 170 °C.

`CNC(=S)N1CCSC1c1ccccc1OCCN1CC=C(c2cccc(F)c2)CC1` (configuration not stated) had a melting point of 147 to 148 °C.

The compound `Cc1c(NC(=O)c2ccc(OC[C@@H]3CCCO3)cc2)ccc2c1cc(CNCC(C)(C)O)n2C` showed a melting point of 160 to 162 °C.

For the compound `C#CCOc1cccc(-n2c(-c3ccccc3)cc(=O)c(C)c2-c2ccccc2)c1`, the melting point lay within 166 to 169 °C.

Turning to `CN1CCN(CCCNc2ncc3c(n2)-c2ccccc2C(c2ccc(Cl)c(Cl)c2)C3)CC1` (configuration not stated), the melting point is 135 to 136 °C.

Consider `CN(C)C=Nc1ccc(-c2ccc(Cl)cc2)cn1`, for which the melting point amounted to 125 °C.

`CN(c1ccc(OC(F)(F)F)cc1)C1CCN(C[C@@]2(C)Cn3cc([N+](=O)[O-])nc3O2)CC1` gave a melting point of 133 to 134 °C.

`CN(C(=S)SC(C[N+](=O)[O-])c1ccccc1)c1ccccc1` (configuration not stated) registered a melting point of 111 to 116 °C.

For `CS(=O)CC(=O)c1ccc(F)cc1` (configuration not stated), the melting point lay in the range of 94.5 to 96 °C.

As for `CCOC(=O)c1ccc2c(c1)CCCC2Cn1ccnc1S` (configuration not stated), the melting point was 155 to 156 °C.

On to `COc1ccccc1CN[C@H]1CCCN[C@H]1C1CCCCC1` (relative stereo), for which the melting point is above 225 °C.

In the case of `CCCCc1nc(Cl)c(CO)n1Cc1ccc(-c2ccccc2-c2nnn(C(c3ccccc3)(c3ccccc3)c3ccccc3)n2)cc1`, the melting point was in the range of 168 to 169 °C.

The compound `OC(CN1CCC(O)(Cc2ccccc2)CC1)c1ccc(Cl)cc1` (configuration not stated) had a melting point of 151 to 152 °C.

In turn, `COC(=O)C(C(=O)OC)c1ccc([N+](=O)[O-])cc1C(=O)O` returned a melting point of 163 to 164 °C.

`COc1cc(C(C)=O)c(OC)cc1Cl` had a melting point of 96 °C.

Regarding `CC(=O)Nc1cc(C(F)(F)F)ccc1S(=O)(=O)CC#N`, the melting point lay in the range of 146 to 147 °C.

In turn, `CCOc1ccc2[nH]cc(CC(C)(C(=O)OC)[N+](=O)[O-])c2c1` (racemic) registered a melting point of 80 to 82 °C.

Turning to `Cc1ccc(N2C(=O)c3ccccc3C2=O)nn1`, the melting point worked out at 214 °C.

`CCNCN1CN=C(c2ccc(OC)c(OC)c2)c2cc(OC)c(OC)cc21` registered a melting point of 128 to 130 °C.

As for `CCOC(=O)c1cn(CCO)c2cc(Cl)c(F)cc2c1=O`, the melting point was 202 °C.

For the compound `CCOC(=O)C(=O)N1CCC(Cc2ccc(C(C)(C)C)cc2)CC1`, the melting point turned out to be 168 °C.

In turn, `COc1ccc2c(c1OCCc1ccccc1)CC(C(=O)O)NC2` (racemic) yielded a melting point of 232 to 235 °C.

On to `O=C1C(=Cc2ccsc2)CCc2cc(OCCn3ccnc3)ccc21`, for which the melting point lay in the range of 61 to 62 °C.

On to `COc1ccc(-c2nc(S(=O)(=O)c3ccc(C)cc3)n(Cc3ccccc3)c2-c2ccc(OC)cc2)cc1`, for which the melting point fell in the range of 154 to 156 °C.

As for `COc1ncc(Cl)c(C)c1C(=O)O`, the melting point lay within 127 to 129 °C.

`Cc1ccc(C(O)(c2ccc(C)cc2)[C@H](C)OS(C)(=O)=O)cc1` gave a melting point of 83 to 85 °C.

Take `CCCCCCNC(=O)c1ccccc1I`: the melting point fell in the range of 104 to 105 °C.

Turning to `OC(CSC(=S)Nc1ccc(Cl)cn1)c1ccccc1` (configuration not stated), the melting point was 116 °C.

Turning to `CC(CO)c1ccc2c(c1)Cc1ccccc1O2` (configuration not stated), the melting point lay within 86 to 89 °C.

The compound `O=C1N(CCOCc2ccccc2)CCN1c1ccc(C(F)(F)F)cc1` registered a melting point of 66 to 68 °C.

`COC(=O)c1ccc(C#CC(O)c2cc(C(C)(C)C)c(OCOCC[Si](C)(C)C)c(C(C)(C)C)c2)cc1` (configuration not stated) had a melting point of 91 to 92 °C.

On to `Cc1c(CC(=O)O)c2cc(OCc3ccc4ccccc4c3)ccc2n1Cc1ccc(Cl)cc1`, for which the melting point lay within 168 to 170 °C.

In the case of `Cc1cccc(Nn2c(-c3ccccc3)c(C(C)C)[nH]c2=S)c1`, the melting point is 220 to 222 °C.

`COCc1c(C(=O)c2ccccc2)ncc2[nH]c3ccc(Oc4ccc(Br)cn4)cc3c12` displayed a melting point of 193 to 194 °C.

The melting point is the temperature, or range, at which the solid turns liquid.
